{
  "source": "patent US7588913B2",
  "about": "“Process for the preparation of cephradine” (DSM IP Assets B.V., priority 2003, dated 2009)",
  "key": {"[1]": {"assay": "Stress stability test 2 (3 hrs at 100° C., A450)", "assay_type": "physicochemical", "details": "for A450 after stress stability test (3 h, 100° C.): crystallisation pH 4.80, hydrate", "protocol": "(§1) The coloration of cephradine hydrate was determined by the absorbance at 450 nm. The absorbance and stress stability of the cephradine hydrate prepared as described above were determined. • 1. Absorbance\n(§2) 1 g of cephradine hydrate was dissolved in 10 ml 10% aqueous sodium carbonate solution. The absorbance was determined at 450 nm (=A450) on a Perkin Elmer 550 S spectrophotometer, with 10% aqueous sodium carbonate solution as a reference solution at room temperature. • 2. Stress Stability Test 1.\nCephradine hydrate prepared enzymatically according to Example III and crystallised at different temperatures as indicated in Table 3 was maintained during 3 hrs at 100° C. The A450 of the cephradine crystals thus treated was determined as described above."}, "[2]": {"assay": "Coloration of cephradine hydrate: absorbance at 450 nm", "assay_type": "physicochemical", "details": "before stress stability test, crystallisation pH 4.80", "protocol": "as §2, with “The coloration of cephradine hydrate was determined by the absorbance at 450 nm. The absorbance and stress stability of the cephradine hydrate prepared as described above were determined. • 1. Absorbance 1 g” for “1 g”"}, "[3]": {"assay_type": "physicochemical", "protocol": "as §1, §2\nCephradine hydrate prepared enzymatically according to Example III and chemically according to Reference Experiment B) was kept at 40° C. at a relative humidity of 75%. After 0, 2, 4, 6 8, 10 and 12 weeks the absorbance at 450 nm was determined as described above."}},
  "note": "Read-outs that look alike come from different tables or passages of the source.",
  "data": [
    {"smiles": "CC1=C(C(=O)O)N2C(=O)[C@@H](NC(=O)[C@H](N)C3=CCC=CC3)[C@H]2SC1", "note": "[VI, cephradine hydrate]", "values": [
      {"measurement": "A450 after stress stability test (3 h, 100° C.)", "setting": "[1]", "result": 0.291},
      {"measurement": "A450 at t = 0", "setting": "[2]", "result": 0.021}
    ]},
    {"smiles": "CC1=C(C(=O)O)N2C(=O)[C@@H](NC(=O)[C@H](N)C3=CCC=CC3)[C@H]2SC1", "note": "[IV, cephradine hydrate]", "values": [
      {"measurement": "A450 after stress stability test (3 h, 100° C.)", "setting": "[1]", "result": 0.301},
      {"measurement": "A450 at t = 0", "setting": "[2]", "result": 0.051}
    ]},
    {"smiles": "CC1=C(C(=O)O)N2C(=O)[C@@H](NC(=O)[C@H](N)C3=CCC=CC3)[C@H]2SC1", "note": "[Cephradine prepared chemically, cephradine hydrate]", "values": [
      {"measurement": "A450 (color stability)", "setting": "[3]; 0 weeks", "result": 0.028},
      {"measurement": "A450 (color stability)", "setting": "[3]; 2 weeks", "result": 0.065},
      {"measurement": "A450 (color stability)", "setting": "[3]; 4 weeks", "result": 0.077},
      {"measurement": "A450 (color stability)", "setting": "[3]; 6 weeks", "result": 0.161},
      {"measurement": "A450 (color stability)", "setting": "[3]; 8 weeks", "result": 0.142},
      {"measurement": "A450 (color stability)", "setting": "[3]; 10 weeks", "result": 0.211}
    ]},
    {"smiles": "CC1=C(C(=O)O)N2C(=O)[C@@H](NC(=O)[C@H](N)C3=CCC=CC3)[C@H]2SC1", "note": "[V, cephradine hydrate]", "values": [
      {"measurement": "Color stability of cephradine crystals versus crystallization temperature", "setting": "[1]", "result": "superior values"},
      {"measurement": "A450 after stress stability test (3 h, 100° C.)", "setting": "[1]", "result": 0.056},
      {"measurement": "A450 at t = 0", "setting": "[2]", "result": 0.018}
    ]},
    {"smiles": "CC1=C(C(=O)O)N2C(=O)[C@@H](NC(=O)[C@H](N)C3=CCC=CC3)[C@H]2SC1", "note": "[VII, cephradine hydrate]", "values": [
      {"measurement": "A450 after stress stability test (3 h, 100° C.)", "setting": "[1]", "result": 0.330},
      {"measurement": "A450 at t = 0", "setting": "[2]", "result": 0.017}
    ]}
  ]
}
